From publication PMC6644330 (ACS Omega, 2017)
Marks after values point to notes of the source that are not given here.

How the values were obtained:
[1] = format: physicochemical; conditions: for log KOW (eq 5b): corrected for phase volume ratio vO/vW; for migration from water to octanol (log KOW could not be measured): zwitterions
[2] = cited from earlier work
[3] = 1H NMR method, preliminary account in the Magritek laboratory manual; cited from earlier work

| Structure (SMILES) | log KOW (eq 5b) ([1]; 20–21 °C) | literature log KOW (ref ([9])) [2] | also measured |
| --- | --- | --- | --- |
| C1COCCO1 [1,4-dioxane] | –0.31 | –0.27 | – |
| CCC(C)O (stereo not shown) [2-butanol] | 0.65 | 0.61 | – |
| CC(C)CO [2-methylpropanol-1] | 0.89 | 0.76 | – |
| CC(C)=O [acetone] | –0.24 | –0.24 | KOW ([1]; single measurement, eq 4): 0.589; log KOW ([1]; single measurement, eq 4): −0.23; log KOW (ref ([14])) [3]: –0.23 |
| CC#N [acetonitrile] | –0.28 | –0.34 | log KOW (ref ([14])) [3]: –0.51 |
| C[C@H](N)C(=O)O [alanine] | – | – | migration from water to octanol (log KOW could not be measured) [1]: did not migrate to any detectable extent |
| CCC(C)=O [butanone] | 0.33 | 0.29 | – |
| C[S+](C)[O-] [dimethyl sulfoxide] | –1.87 | –1.35 | literature log KOW [2]: −2.03 (ref ([1])) |
| CN(C)C=O [dimethylformamide] | –1.03 | – | – |
| CCOC(C)=O [ethyl acetate] | 0.88 | 0.73 | – |
| NCC(=O)O [glycine] | – | – | migration from water to octanol (log KOW could not be measured) [1]: did not migrate to any detectable extent |
| CO [methanol] | –0.75 | –0.77 | log KOW (eq 5b), corrected for OH ([1]; 20–21 °C, corrected for phase volume ratio and for OH): −0.71 ^c; log KOW ± SD (eq 4, this work), corrected for OH ([1]; 20–21 °C, n = 5, equal phase volumes assumed, corrected for OH): –0.72 ^c ± 0.016 (n = 5); correction of log KOW for alcohol OH protons ([1]; increase of log KOW): 0.04 |
| COC(C)=O [methyl acetate] | 0.19 | 0.18 | – |
| C1CCOC1 [tetrahydrofuran] | 0.44 | 0.46 | log KOW (ref ([14])) [3]: 0.43 |
